# According to PubChem BioAssay (NCI):
#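 These data come from cells grown in 96-well plates and exposed to compound for 48 hours at five concentrations. GI50 marks 50% less growth. TGI: concentration producing complete growth inhibition.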
# Experiments:
# Assay in all cases: NCI anticancer screen, dose series, 48 h
# CAKI-1 renal = test system: CAKI-1 renal
# UO-31 renal = test system: UO-31 renal
# IGROV1 ovarian = test system: IGROV1 ovarian
# SK-MEL-2 melanoma = test system: SK-MEL-2 melanoma
# LOX IMVI melanoma = test system: LOX IMVI melanoma
# SK-MEL-28 melanoma = test system: SK-MEL-28 melanoma
# UACC-62 melanoma = test system: UACC-62 melanoma
# HOP-92 NSCLC = test system: HOP-92 NSCLC
# MCF7 breast = test system: MCF7 breast
# SR leukemia = test system: SR leukemia
SMILES,GI50 (CAKI-1 renal) [µM],TGI (CAKI-1 renal) [µM],GI50 (UO-31 renal) [µM],TGI (UO-31 renal) [µM],GI50 (IGROV1 ovarian) [µM],TGI (IGROV1 ovarian) [µM],GI50 (SK-MEL-2 melanoma) [µM],TGI (SK-MEL-2 melanoma) [µM],GI50 (LOX IMVI melanoma) [µM],TGI (LOX IMVI melanoma) [µM],GI50 (SK-MEL-28 melanoma) [µM],TGI (SK-MEL-28 melanoma) [µM],GI50 (UACC-62 melanoma) [µM],TGI (UACC-62 melanoma) [µM],GI50 (HOP-92 NSCLC) [µM],TGI (HOP-92 NSCLC) [µM],GI50 (MCF7 breast) [µM],TGI (MCF7 breast) [µM],TGI (SR leukemia) [µM]
CC(=O)[CH-]C(=O)c1ccccc1.CC(=O)[CH-]C(=O)c1ccccc1.C[C@]12CCC(=O)C=C1CC[C@@H]1C2CC[C@@]2(C)C1CC[C@@H]2[O-].C[C@]12CCC(=O)C=C1CC[C@@H]1C2CC[C@@]2(C)C1CC[C@@H]2[O-].Cl.[Ti+4] (some centres undefined),13.8,46.4,16.5,52.5,21.8,46.4,12.7,31.4,16.9,38.8,32.9,> 100,6.67,33.8,,,,,
CCOc1cccc(-c2nc(N)nc(Nc3ccccc3SSc3ccccc3Nc3nc(N)nc(-c4cccc(OCC)c4)n3)n2)c1,3.29,28.3,1.68,3.16,3.65,97,6.12,> 100,1.51,3.22,10.7,> 100,2.28,5.29,2.77,9.86,4.97,> 100,
OCc1c[te]c(-c2ccccc2)c1,,> 100,,79.4,,> 100,,85.5,,,,> 100,,> 100,,,,,
CCNC(=O)O/N=C1\CCC2[C@@H]3CC=C4C[C@@H](OC5CCCCO5)CC[C@]4(C)C3CC[C@]12C (some centres undefined),,6.19,,2.85,,> 100,,5.68,,,,10.8,,3.94,,7.34,,,
N/N=c1\c2ccccc2c2cc3c(cc12)/c(=N/N)c1ccccc13,,,,> 100,,> 100,,> 100,,,,> 100,,> 100,,> 100,,,> 100
CC1(C)[C@@H](OC(=O)CCC(=O)O)CC[C@]2(C)[C@H]3C(=O)C=C4[C@@H]5C[C@@](C)(C(=O)O)CC[C@]5(C)CC[C@@]4(C)[C@]3(C)CC[C@@H]12,61.6,157,60.1,81.6,55.8,100,52.1,67.9,,,57.5,85.4,48.1,60.6,58.6,87.2,54.7,136,
C=C(C(=C)P(=S)(c1ccccc1)c1ccccc1)P(=S)(c1ccccc1)c1ccccc1,,> 100,,,,> 100,,> 100,,,,> 100,,> 100,,> 100,,,
CC#CC1C2CCCC1(CSc1ccccc1)NC(=O)O2 (centres undefined),,> 100,,> 100,,> 100,,> 100,,,,,,> 100,,> 100,,,> 100
c1ccc2cc(C[n+]3ccn(CCCCCCCCCCn4cc[n+](Cc5ccc6ccccc6c5)c4)c3)ccc2c1,,,6.14,> 100,1.11,3.08,1.72,5.2,1.21,3.66,1.3,5.66,0.646,3.08,0.396,2.96,0.554,2.3,
Clc1cc(Cl)cc(N2N=C(c3cccc(Nc4ccncc4)c3)CC2c2ccc3c(c2)OCO3)c1 (centres undefined),1.54,2.9,1.36,2.67,1.62,3.18,,,,,1.84,3.36,1.71,3.17,1.39,2.82,1.89,4.17,
CC(=O)OC1CC2C3CCC4C[C@@H](NC(=O)C=C(C)C)CC[C@]4(C)C3CC[C@]2(C)[C@H]1C(C)N(C)C (some centres undefined),3.71,13.2,0.949,2.95,1.28,6.5,2.31,4.58,1.07,2.53,1.75,3.39,2.16,4.45,0.89,4.06,1.71,5.84,
Cc1ccccc1-n1c2nc(=O)n(C)c(=O)c-2nc2ccccc21,,48.9,,66.1,,37.9,,32.5,,39.7,,,,9.78,,,,,
COc1ccccc1NC(=O)c1nc2ccc([N+](=O)[O-])cc2nc1C,,> 100,,> 100,,> 100,,> 100,,> 100,,> 100,,> 100,,> 100,,,
NCCNCc1c2ccccc2c(CNCCN)c2ccccc12,,,,> 100,,> 100,,29.1,,,,,,53.5,,45.9,,,> 100
